Results: the supplement of paper PMC13380429

Columns and labels:
Conditions in all cases: 72 h
Caco-2 [1] = experiment: cell viability relative to DMSO; higher = less toxic
Calu-3 [2] = experiment: as above
HepG2 [3] = experiment: as above
U2OS [4] = experiment: as above
Vero E6 [5] = experiment: as above
Caco-2 [6] = experiment: relative viability EC50 (midpoint between 100% and the lowest measured viability); higher = less toxic
Calu-3 [7] = experiment: as above
HepG2 [8] = experiment: as above
U2OS [9] = experiment: as above
Vero E6 [10] = experiment: as above
Caco-2 [11] = experiment: drug sensitivity score (DSS) for viability; higher = more toxic; extreme values may be limits of the assay
Calu-3 [12] = experiment: as above
HepG2 [13] = experiment: as above
U2OS [14] = experiment: as above
Vero E6 [15] = experiment: as above

SMILES	cell viability (Caco-2 [1]; 1 nM)	cell viability (Caco-2 [1]; 10 nM)	cell viability (Caco-2 [1]; 100 nM)	cell viability (Caco-2 [1]; 1000 nM)	cell viability (Caco-2 [1]; 10000 nM)	cell viability (Calu-3 [2]; 1 nM)	cell viability (Calu-3 [2]; 10 nM)	cell viability (Calu-3 [2]; 100 nM)	cell viability (Calu-3 [2]; 1000 nM)	cell viability (Calu-3 [2]; 10000 nM)	cell viability (HepG2 [3]; 1 nM)	cell viability (HepG2 [3]; 10 nM)	cell viability (HepG2 [3]; 100 nM)	cell viability (HepG2 [3]; 1000 nM)	cell viability (HepG2 [3]; 10000 nM)	cell viability (U2OS [4]; 1 nM)	cell viability (U2OS [4]; 10 nM)	cell viability (U2OS [4]; 100 nM)	cell viability (U2OS [4]; 1000 nM)	cell viability (U2OS [4]; 10000 nM)	cell viability (Vero E6 [5]; 1 nM)	cell viability (Vero E6 [5]; 10 nM)	cell viability (Vero E6 [5]; 100 nM)	cell viability (Vero E6 [5]; 1000 nM)	cell viability (Vero E6 [5]; 10000 nM)	relative viability EC50 (Caco-2 [6])	relative viability EC50 (Calu-3 [7])	relative viability EC50 (HepG2 [8])	relative viability EC50 (U2OS [9])	relative viability EC50 (Vero E6 [10])	drug sensitivity score (Caco-2 [11])	drug sensitivity score (Calu-3 [12])	drug sensitivity score (HepG2 [13])	drug sensitivity score (U2OS [14])	drug sensitivity score (Vero E6 [15])
O=C(OOC(=O)c1ccccc1)c1ccccc1 [benzoyl-peroxide]	102%	87.9%	96.6%	91.2%	99.4%	99%	95.8%	103%	99%	103%	92.1%	104%	99.1%	110%	107%	98%	95.2%	99.3%	97.6%	94.1%	95.6%	98.8%	92%	95%	105%	> 10 µM	> 10 µM	> 10 µM	> 10 µM	> 10 µM	0	0	0	0	0
O=c1ncccn1[C@@H]1O[C@H](CO)[C@@H](O)[C@H]1O [zebularine]	103%	102%	104%	97.9%	101%	94.4%	102%	85.9%	96.7%	84.4%	113%	97.5%	111%	101%	103%	97.8%	99.2%	96.8%	101%	92.6%	99.6%	99.1%	102%	97.9%	99.1%	> 10 µM	> 10 µM	> 10 µM	> 10 µM	> 10 µM	0	0.3	0	0	0
Cc1cc(-c2cc(O)ccc2Cl)cc2nnc(Nc3ccc(OCCN4CCCC4)cc3)nc12	94%	94.7%	101%	82.5%	0.3%	100%	94.8%	101%	93.8%	0.1%	94.5%	97.3%	106%	96.6%	0%	104%	104%	106%	80%	0%	97.8%	100%	96.3%	94%	0%	1.85 µM	2.67 µM	2.92 µM	1.74 µM	2.69 µM	8.4	6.5	6	8.7	6.4
CCN(CC)CCOC(=O)c1ccc(N)cc1 [procaine]	92.8%	92.7%	96.6%	97%	97.3%	100%	93.3%	92%	97%	98.3%	108%	94.9%	100%	97.7%	98.9%	100%	95.2%	97.9%	94.2%	102%	104%	99.4%	99.3%	103%	98.5%	> 10 µM	> 10 µM	> 10 µM	> 10 µM	> 10 µM	0	0	0	0	0
COc1cc2nc(N3CCN(C(=O)c4ccco4)CC3)nc(N)c2cc1OC [prazosin]	94.4%	91.2%	98.4%	96%	92.5%	105%	102%	103%	97.4%	99.1%	89.9%	93.5%	86.2%	91.9%	97.6%	98.2%	97.8%	99.5%	102%	101%	102%	105%	101%	99.3%	118%	> 10 µM	> 10 µM	> 10 µM	> 10 µM	> 10 µM	0	0	0	0	0
NCCCNCCCCNCCCN [spermine]	90.2%	124%	93.5%	98%	96.7%	99.2%	101%	81.9%	99.2%	104%	93.6%	98.4%	104%	93.1%	94.3%	96.5%	96.3%	96.1%	96.8%	103%	95.3%	94.1%	95.8%	98.6%	106%	> 10 µM	> 10 µM	> 10 µM	> 10 µM	> 10 µM	0	0	0	0	0
Cc1cccc(Oc2nc3c(C)cccn3c(=O)c2/C=C(\C#N)c2nc3ccccc3s2)c1	93.1%	98.3%	98.3%	94%	98.6%	97%	94.1%	98.6%	102%	112%	100%	90.2%	101%	94.6%	100%	95.2%	99.1%	96%	102%	106%	103%	95.5%	99.4%	91.4%	106%	> 10 µM	> 10 µM	> 10 µM	> 10 µM	> 10 µM	0	0	0	0	0
CN[C@@H](C)C(=O)N[C@H](C(=O)N1CCC[C@H]1c1nc(C(=O)c2ccc(F)cc2)cs1)C1CCCCC1 [LCL-161]	99.9%	97.9%	91.9%	103%	95.2%	106%	102%	97.6%	86.4%	77.2%	93.5%	104%	99.8%	83.4%	89.8%	104%	109%	99.7%	97.8%	94%	97.8%	102%	97.8%	107%	104%	> 10 µM	> 10 µM	> 10 µM	> 10 µM	> 10 µM	0	2	1.8	0	0
Nc1ccc(S(=O)(=O)Nc2ccnn2-c2ccccc2)cc1 [sulfaphenazole]	97.5%	100%	102%	96.1%	94%	97.2%	100%	101%	104%	97.2%	102%	99.5%	85.5%	112%	103%	97.4%	97.8%	100%	99.4%	101%	93.1%	102%	88.4%	99.5%	108%	> 10 µM	> 10 µM	> 10 µM	> 10 µM	> 10 µM	0	0	0	0	0
C/C(=N\NC(=O)C(NC(=O)c1ccccc1)c1n[nH]c(=O)c2ccccc12)c1cccc(Br)c1 (stereo not given)	101%	102%	106%	95.8%	100%	95.7%	113%	100%	107%	108%	97.7%	94.2%	98.1%	95.4%	106%	99.5%	97%	100%	102%	100%	88.3%	97.9%	97.4%	100%	104%	> 10 µM	> 10 µM	> 10 µM	> 10 µM	> 10 µM	0	0	0	0	0
CCCCCCCCCCCCCCCC[N+](C)(C)Cc1ccccc1 [benzyldimethylhexadecylammonium]	93.9%	96.1%	91.9%	89.4%	18%	94.9%	105%	105%	102%	41.2%	113%	101%	102%	93.7%	30.6%	99.6%	101%	102%	102%	14.1%	99%	94.6%	100%	94.5%	92.8%	2.12 µM	3.39 µM	2.41 µM	3.28 µM	> 10 µM	6.3	3	4.8	4.6	0
CCCC(=O)Nc1ccc(OCC(O)CNC(C)C)c(C(C)=O)c1 (stereo not given) [acebutolol]	102%	94.8%	93%	104%	96.1%	95.3%	104%	104%	117%	88.5%	106%	88.6%	104%	88.7%	104%	90.4%	96.3%	95.2%	98%	101%	88.2%	96.9%	93.8%	81.9%	95.6%	> 10 µM	> 10 µM	> 10 µM	> 10 µM	> 10 µM	0	0	0	0	0
CC[C@@H]1/C=C(\C)C[C@H](C)C[C@H](OC)[C@H]2O[C@@](O)(C(=O)C(=O)N3CCCC[C@H]3C(=O)O[C@H](/C(C)=C/[C@@H]3CC[C@@H](O)[C@H](OC)C3)[C@H](C)[C@@H](O)CC1=O)[C@H](C)C[C@@H]2OC [ascomycin]	117%	97.8%	95%	100%	84.5%	98.3%	98.9%	90.8%	107%	107%	124%	109%	112%	96%	104%	96%	104%	97.8%	98.4%	95.2%	107%	100%	98.1%	93.5%	102%	> 10 µM	> 10 µM	> 10 µM	> 10 µM	> 10 µM	0.2	0	0	0	0
CC(C)N(CC[C@H](c1ccccc1)c1cc(CO)ccc1O)C(C)C [5-hydroxymethyl-tolterodine]	89%	87.9%	108%	102%	99.6%	104%	89.3%	96.7%	98.6%	99.3%	104%	91.6%	102%	96.5%	112%	101%	99.1%	105%	91.8%	95.9%	95.7%	96.2%	96.6%	98.2%	101%	> 10 µM	> 10 µM	> 10 µM	> 10 µM	> 10 µM	0	0	0	0	0
